Patent US20240122956A1, “Application of Naringin Combined with Rapamycin in Preparation of Medications for Treating Hyperlipidemia” (AIR FORCE MEDICAL UNIVERSITY, priority 2023, published 2024)

What was measured:
[1] = test system: oxidized low-density lipoprotein (oxLDL); assay: drug screening among 200 natural products for neutralizing oxLp: affinity and surface charge, oxLDL; assay type: binding
Source text: (§1) This unregulated process of lipid accumulation and inflammatory reaction, induced by oxLp-NLRP3 complexes, accelerates the progression of hyperlipidemia. Considering the role of oxLp-NLRP3 complexes in the progression of hyperlipidemia, a drug screening technique was employed to search for potential compounds among 200 natural products with the aim of neutralizing oxLp. […] Therefore, naringin was selected for further investigation.

[2] = test system: oxidized high-density lipoprotein (oxHDL); assay: drug screening among 200 natural products for neutralizing oxLp: affinity and surface charge, oxHDL; assay type: binding
Source text: as §1

oxLDL-NLRP3 complexes = assay: formation of oxLDL-NLRP3 complexes in THP-1 cells (fluorescence imaging); assay type: cell-based; conditions: naringin 100 μM pre-treatment 1 hour, oxLDL 50 μg/mL 3 hours
Protocol: (§2) Cell Culture and Treatment: THP-1 cells (from American Type Culture Collection, Manassas, Virginia) were cultured in RPMI 1640. They were pre-treated with naringin (Sigma, 91842; 100 μM) for 1 hour, followed by cultivation in serum-free medium containing oxLDL and oxHDL (50 μg/mL) for 3 hours. The culture condition was maintained at 37° C. and with 5% CO2.

oxHDL-NLRP3 complexes = assay: formation of oxHDL-NLRP3 complexes in THP-1 cells (fluorescence imaging); assay type: cell-based; conditions: naringin 100 μM pre-treatment 1 hour, oxHDL 50 μg/mL 3 hours
Protocol: as §2

THP-1 cells [3] = assay: IL-1β release in THP-1 cells; assay type: cell-based; conditions: naringin 100 μM pre-treatment 1 hour
Protocol: as §2
Measurement of IL-1β: IL-1β was measured using a commercially available IL-1β assay kit according to the manufacturer's instructions.

THP-1 cells [4] = assay: intracellular cholesterol accumulation in THP-1 cells; assay type: cell-based; conditions: naringin 100 μM pre-treatment 1 hour
Protocol: as §2
Measurement of Intracellular Cholesterol: Intracellular cholesterol was determined using a commercially available intracellular cholesterol assay kit according to the manufacturer's instructions.

[5] = test system: hyperlipidemia model Ldr1−/− (C57BL/6J) mice; assay: lipid accumulation / lesions in carotid arteries, aortic roots and liver of hyperlipidemic mice (Oil Red O); assay type: in vivo; conditions: high-fat diet 16 weeks, naringin 20 mg/kg daily intraperitoneal, RAPA 40 mg/kg in diet
Source text: To evaluate the synergistic therapeutic effects of naringin and rapamycin on hyperlipidemia mice (FIG. 4), a hyperlipidemia model was established using Ldr1^−/− (C57BL/6J) mice. […] Subsequently, mouse serum, tissues of carotid arteries, liver, and aortic root were collected for analysis. Assessment of Lesions in Carotid Arteries, Aortic Roots, and Liver Tissues: Carotid arteries, hearts, and livers of mice were dissected, fixed overnight with 4% PFA, and carotid arteries were stained with Oil Red O after gently removing adherent (outer membrane) fat and flattening them from the carotid arteries. The stained aortas were placed on anti-fall-off slides, fully unfolded, and images were captured using a high-resolution camera. Hearts and livers were embedded in OCT tissue, and 7-10 μm thick continuous sections were collected. Staining was performed with Oil Red O and hematoxylin and eosin. Stained sections were analyzed using an optical microscope. ImageJ (version 2.10) was used for quantitative analysis of the images. Lesion areas were assessed according to the percentage of Oil Red 0-positive areas in the total sampled area.

## C[C@@H]1O[C@@H](O[C@H]2[C@H](Oc3cc(O)c4c(c3)O[C@H](c3ccc(O)cc3)CC4=O)O[C@H](CO)[C@@H](O)[C@@H]2O)[C@H](O)[C@H](O)[C@H]1O [naringin]
[1]
  neutralizing the negative charge on the surface of oxLDL: capable of neutralizing the negative charge
[1]; drug screening
  affinity for oxLDL: high affinity
[2]
  neutralizing the negative charge on the surface of oxHDL: capable of neutralizing the negative charge
[2]; drug screening
  affinity for oxHDL: high affinity
oxLDL-NLRP3 complexes
  formation of complexes between oxLDL and NLRP3: inhibited the formation of complexes
oxHDL-NLRP3 complexes
  formation of complexes between oxHDL and NLRP3: inhibited the formation of complexes
THP-1 cells [3]; oxHDL 50 μg/mL 3 hours
  oxHDL-induced IL-1β release: reduced
THP-1 cells [3]; oxLDL 50 μg/mL 3 hours
  oxLDL-induced IL-1β release: reduced
THP-1 cells [4]; oxHDL 50 μg/mL 3 hours
  oxHDL-induced cholesterol accumulation: reduced
THP-1 cells [4]; oxLDL 50 μg/mL 3 hours
  oxLDL-induced cholesterol accumulation: reduced
[5]
  lipid accumulation in the aortic roots: alleviated lipid accumulation
  lipid accumulation in the carotid arteries: alleviated lipid accumulation
  lipid accumulation in the livers: alleviated lipid accumulation
